Results reported in patent publication US20060057133A1, “Topical pathogenic-tissue-destroying liquid” (priority 2002, published 2006).

Key:
diseased tissue = assay: topical application of acids, enzymes and the topical liquid to skin, mucous membranes and diseased tissue; conditions: for aggressiveness toward the skin and mucous membranes / tissues: topical use while selecting components of the mixture
Excerpt: The topical liquid or aqueous composition is composed of substances such as nitric acid and enzymes, mucins and ptyalin which are combined to form an aqueous pharmaceutical composition which is applied to the infected tissues and selectively attacks the cells of the diseased tissue or tumour. This composition is applied to the tissues which are to be eliminated, in dabs which are applied using a cotton swab moistened with the topical liquid that destroys the pathogenic tissue. It is applied to the diseased tissue as necessary, until the tissue changes colour and a small clear or pink halo appears round the treated tissue. The site is then washed with clean water. When applied to the mucous membranes, washing after application of the pathogenic-tissue destroying topical liquid is not necessary. […] However, this sometimes depends on the sensitivity of the individual (only individuals who have a tendency to form keloid scars will be left with a slight sign).

[1] = test system: herpes simplex virus type 1; conditions: 4 mM, cited from earlier work

| SMILES | aggressiveness toward the skin and mucous membranes / tissues (diseased tissue) | further results |
| --- | --- | --- |
| O=[N+]([O-])O [Nitric acid] | least aggressive | – |
| O=C(O)CC(O)(CC(=O)O)C(=O)O [citric acid] | – | coagulation of the diseased tissue (diseased tissue; topical application): did not succeed in coagulating the diseased tissue |
| O=C(O)C(O)CO (stereo not drawn) [glyceric acid] | – | synthesis of glycoproteins in normal cells ([1]; normal cells): slightly affected; production of the virus inhibited [1]: 99% |
| Cl [hydrochloric acid] | too aggressive | – |
| O=S(=O)(O)O [sulphuric, sulphuric acid] | too aggressive | – |
